Activity calls are given as the source filed them. The rule behind the calls is not given here. Where a SMILES comes first, the peptide text is derived from it. Bridges are numbered along the chain shown (N, C = ends). [ ]: non-standard residue; d: D form.
Legend:
[1] = target: T1, Somatostatin receptor type 3 (Homo sapiens, UniProt P32745); assay: Partial antagonist activity at human sst3 receptor expressed in CCL39 cells assessed as inhibition of somatostatin-induced luciferase reporter gene expression at 10 uM after 5 hrs; assay type: functional, cell-based
[2] = target: Somatostatin receptor type 4 (Homo sapiens, UniProt P31391); assay: Displacement of 125I-[LTT]-SRIF-28 from human sst4 receptor in CCL39 cells after 2 hrs by autoradiography; assay type: cell-based
[3] = target: Somatostatin receptor type 5 (Homo sapiens, UniProt P35346); assay: Displacement of 125I-[LTT]-SRIF-28 from human sst5 receptor in HEK293 cells after 2 hrs by autoradiography; assay type: cell-based
[4] = target: T1, Somatostatin receptor type 3; assay: Partial agonist activity at human sst3 receptor expressed in CCL39 cells after 5 hrs by luciferase reporter gene assay; assay type: functional, cell-based
[5] = target: Somatostatin receptor type 2 (Homo sapiens, UniProt P30874); assay: Displacement of 125I-[LTT]-SRIF-28 from human sst2 receptor in CCL39 cells after 2 hrs by autoradiography; assay type: cell-based
[6] = target: Somatostatin receptor type 1 (Homo sapiens, UniProt P30872); assay: Displacement of 125I-[LTT]-SRIF-28 from human sst1 receptor in CHO cells after 2 hrs by autoradiography; assay type: cell-based
[7] = target: T1, Somatostatin receptor type 3; assay: Displacement of 125I-[LTT]-SRIF-28 from human sst3 receptor in CCL39 cells after 2 hrs by autoradiography; assay type: cell-based
[8] = target: T1, Somatostatin receptor type 3; assay: Induction of sst3 receptor internalization in human HEK cells after 30 mins by immunofluorescence microscopy; assay type: cell-based; conditions: HEK293
[9] = target: T1, Somatostatin receptor type 3; assay: Agonist activity at human sst3 receptor expressed in CCL39 cells after 5 hrs by luciferase reporter gene assay; assay type: functional, cell-based
[10] = target: T1, Somatostatin receptor type 3; assay: Inhibition of somatostatin-induced sst3 receptor internalization in human HEK cells at 10 uM after 30 mins by immunofluorescence microscopy; assay type: cell-based; conditions: HEK293
[11] = target: T1, Somatostatin receptor type 3; assay: Induction of sst3 receptor internalization in human HEK cells at 10 uM after 30 mins by immunofluorescence microscopy; assay type: cell-based; conditions: HEK293

T1 sequence (P32745 whole entry): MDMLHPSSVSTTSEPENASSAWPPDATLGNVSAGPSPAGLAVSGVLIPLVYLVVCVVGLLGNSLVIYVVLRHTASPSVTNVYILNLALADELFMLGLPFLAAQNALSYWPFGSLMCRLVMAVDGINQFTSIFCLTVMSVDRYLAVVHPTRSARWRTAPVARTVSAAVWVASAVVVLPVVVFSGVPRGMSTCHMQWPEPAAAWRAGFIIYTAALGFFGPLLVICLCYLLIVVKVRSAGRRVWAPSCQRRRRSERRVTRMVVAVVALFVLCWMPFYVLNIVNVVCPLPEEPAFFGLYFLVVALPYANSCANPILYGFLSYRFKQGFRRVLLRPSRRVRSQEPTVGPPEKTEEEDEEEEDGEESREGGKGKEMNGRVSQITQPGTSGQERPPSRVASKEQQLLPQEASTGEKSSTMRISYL
Chain of Somatostatin receptor type 2 (P30874 whole entry): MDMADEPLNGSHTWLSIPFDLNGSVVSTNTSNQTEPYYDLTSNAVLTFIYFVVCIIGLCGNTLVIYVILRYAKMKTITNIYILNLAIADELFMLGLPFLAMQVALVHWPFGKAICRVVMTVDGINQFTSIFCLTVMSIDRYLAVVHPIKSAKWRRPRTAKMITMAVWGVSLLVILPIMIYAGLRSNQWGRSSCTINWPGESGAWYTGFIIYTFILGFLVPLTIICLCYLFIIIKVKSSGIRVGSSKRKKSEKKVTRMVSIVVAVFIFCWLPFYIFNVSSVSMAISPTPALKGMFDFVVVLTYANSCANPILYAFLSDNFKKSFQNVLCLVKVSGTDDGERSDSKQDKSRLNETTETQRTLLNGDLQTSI
Chain of Somatostatin receptor type 1 (P30872 whole entry): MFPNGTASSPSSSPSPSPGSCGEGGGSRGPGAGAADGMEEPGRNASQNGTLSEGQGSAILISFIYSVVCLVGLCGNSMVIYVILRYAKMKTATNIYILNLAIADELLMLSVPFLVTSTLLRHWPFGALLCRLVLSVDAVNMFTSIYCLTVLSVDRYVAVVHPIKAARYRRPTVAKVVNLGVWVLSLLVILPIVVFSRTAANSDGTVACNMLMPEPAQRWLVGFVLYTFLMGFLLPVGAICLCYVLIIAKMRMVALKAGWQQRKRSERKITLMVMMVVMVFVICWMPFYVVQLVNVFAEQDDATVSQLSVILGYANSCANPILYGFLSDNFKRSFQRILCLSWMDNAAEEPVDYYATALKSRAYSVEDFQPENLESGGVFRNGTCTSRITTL
Chain of Somatostatin receptor type 5 (P35346 whole entry): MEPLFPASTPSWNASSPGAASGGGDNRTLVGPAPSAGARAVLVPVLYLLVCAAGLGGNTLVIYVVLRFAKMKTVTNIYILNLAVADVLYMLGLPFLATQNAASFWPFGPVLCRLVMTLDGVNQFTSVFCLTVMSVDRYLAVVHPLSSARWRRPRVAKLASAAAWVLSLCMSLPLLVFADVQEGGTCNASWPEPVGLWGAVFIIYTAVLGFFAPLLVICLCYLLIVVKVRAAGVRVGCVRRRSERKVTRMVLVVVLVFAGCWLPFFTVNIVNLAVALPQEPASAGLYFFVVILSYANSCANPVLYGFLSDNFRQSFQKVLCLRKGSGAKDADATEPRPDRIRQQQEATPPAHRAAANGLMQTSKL
Chain of Somatostatin receptor type 4 (P31391 whole entry): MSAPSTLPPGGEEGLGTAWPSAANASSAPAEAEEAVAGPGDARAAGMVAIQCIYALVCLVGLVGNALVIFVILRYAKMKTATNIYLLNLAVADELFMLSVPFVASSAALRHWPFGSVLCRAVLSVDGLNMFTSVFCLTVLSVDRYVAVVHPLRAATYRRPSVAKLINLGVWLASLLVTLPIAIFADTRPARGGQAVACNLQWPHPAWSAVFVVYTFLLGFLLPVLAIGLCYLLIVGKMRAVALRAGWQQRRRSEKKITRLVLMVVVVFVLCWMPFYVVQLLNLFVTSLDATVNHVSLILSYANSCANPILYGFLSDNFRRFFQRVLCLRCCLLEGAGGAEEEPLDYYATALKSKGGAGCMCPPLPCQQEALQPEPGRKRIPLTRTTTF

| SMILES | Activity [1] | IC50 [2] [nM] | IC50 [3] [nM] | EC50 [4] [nM] | IC50 [5] [nM] | IC50 [6] [nM] | IC50 [7] [nM] | Activity [8] | EC50 [9] [nM] | Activity [10] | Activity [11] |
| --- | --- | --- | --- | --- | --- | --- | --- | --- | --- | --- | --- |
| C[C@H](N)C(=O)NCC(=O)N[C@H]1CSSC[C@@H](C(=O)O)NC(=O)[C@H](CO)NC(=O)[C@H]([C@@H](C)O)NC(=O)[C@H](Cc2ccccc2)NC(=O)[C@H]([C@@H](C)O)NC(=O)[C@H](CCCCN)NC(=O)[C@@H](Cc2cn(Cc3ccccc3)cn2)NC(=O)[C@H](Cc2ccccc2)NC(=O)[C@H](Cc2ccccc2)NC(=O)[C@H](CC(N)=O)NC(=O)[C@H](CCCCN)NC1=O | Active | > 1000 | > 1000 | 41 | 106 | > 1000 | 15 | Active | – | – | – |
| C[C@H](N)C(=O)NCC(=O)N[C@H]1CSSC[C@@H](C(=O)O)NC(=O)[C@H](CO)NC(=O)[C@H]([C@@H](C)O)NC(=O)[C@H](Cc2ccccc2)NC(=O)[C@H]([C@@H](C)O)NC(=O)[C@H](CCCCN)NC(=O)[C@@H](Cc2ccc(O)cc2)NC(=O)[C@H](Cc2ccccc2)NC(=O)[C@H](Cc2ccccc2)NC(=O)[C@H](CC(N)=O)NC(=O)[C@H](CCCCN)NC1=O | – | 16 | 41 | – | 4.1 | 140 | 2 | Active | 0.87 | – | – |
| C[C@H](N)C(=O)NCC(=O)N[C@H]1CSSC[C@@H](C(=O)O)NC(=O)[C@H](CO)NC(=O)[C@H]([C@@H](C)O)NC(=O)[C@H](Cc2ccccc2)NC(=O)[C@H]([C@@H](C)O)NC(=O)[C@H](CCCCN)NC(=O)[C@H](Cc2ccc3ccccc3c2)NC(=O)[C@H](Cc2ccccc2)NC(=O)[C@H](Cc2ccccc2)NC(=O)[C@H](CC(N)=O)NC(=O)[C@H](CCCCN)NC1=O | – | 12 | 69 | – | 15 | 2.7 | 1.5 | Active | 0.35 | – | – |
| C[C@@H](O)[C@@H]1NC(=O)[C@H](CCCCN)NC(=O)[C@H](Cc2c[nH]c3ccccc23)NC(=O)[C@H](Cc2ccccc2)NC(=O)[C@H](Cc2ccccc2)NC(=O)[C@@H](N)CSSC[C@@H](C(=O)O)NC(=O)[C@H](Cc2ccccc2)NC1=O (H-CFFWKTFC-OH; disulfide 1-8) | – | – | 16 | 4.7 | – | – | – | Active | – | – | – |
| C[C@H](N)C(=O)NCC(=O)N[C@H]1CSSC[C@@H](C(=O)O)NC(=O)[C@H](CO)NC(=O)[C@H]([C@@H](C)O)NC(=O)[C@H](Cc2ccccc2)NC(=O)[C@H]([C@@H](C)O)NC(=O)[C@H](CCCCN)NC(=O)[C@H](Cc2ccc(O)cc2)NC(=O)[C@H](Cc2ccccc2)NC(=O)[C@H](Cc2ccccc2)NC(=O)[C@H](CC(N)=O)NC(=O)[C@H](CCCCN)NC1=O | – | 25 | 556 | – | 35 | 138 | 13 | Active | 15.7 | – | – |
| C[C@@H](O)[C@@H]1NC(=O)[C@H](CCCCN)NC(=O)[C@H](Cc2cn(Cc3ccccc3)cn2)NC(=O)[C@H](Cc2ccccc2)NC(=O)[C@H](Cc2ccccc2)NC(=O)[C@@H](N)CSSC[C@@H](C(=O)O)NC(=O)[C@H](Cc2ccccc2)NC1=O | Active | > 1000 | > 1000 | 164 | > 1000 | > 1000 | 164 | inactive | – | Active | inactive |
| C[C@@H](O)[C@@H]1NC(=O)[C@H](CCCCN)NC(=O)[C@@H](Cc2cn(Cc3ccccc3)cn2)NC(=O)[C@H](Cc2ccccc2)NC(=O)[C@H](Cc2ccccc2)NC(=O)[C@@H](N)CSSC[C@@H](C(=O)O)NC(=O)[C@H](Cc2ccccc2)NC1=O | Active | 590 | > 1000 | 299 | > 1000 | > 1000 | 75 | inactive | – | Active | inactive |
| C[C@@H](O)[C@@H]1NC(=O)[C@H](CCCCN)NC(=O)[C@@H](Cc2c[nH]c3ccccc23)NC(=O)[C@H](Cc2ccccc2)NC(=O)[C@H](Cc2ccccc2)NC(=O)[C@@H](N)CSSC[C@@H](C(=O)O)NC(=O)[C@H](Cc2ccccc2)NC1=O (H-CFF[dW]KTFC-OH; disulfide 1-8) | – | – | 2.6 | – | – | – | – | Active | 3.33 | – | – |
| C[C@@H](O)[C@@H]1NC(=O)[C@H](CCCCN)NC(=O)[C@@H](Cc2ccc3ccccc3c2)NC(=O)[C@H](Cc2ccccc2)NC(=O)[C@H](Cc2ccccc2)NC(=O)[C@@H](N)CSSC[C@@H](C(=O)O)NC(=O)[C@H](Cc2ccccc2)NC1=O | – | 41 | 6 | – | 173 | 607 | 6.7 | Active | 0.53 | – | – |
| C[C@H](N)C(=O)NCC(=O)N[C@H]1CSSC[C@@H](C(=O)O)NC(=O)[C@H](CO)NC(=O)[C@H]([C@@H](C)O)NC(=O)[C@H](Cc2ccccc2)NC(=O)[C@H]([C@@H](C)O)NC(=O)[C@H](CCCCN)NC(=O)[C@H](Cc2cn(Cc3ccccc3)cn2)NC(=O)[C@H](Cc2ccccc2)NC(=O)[C@H](Cc2ccccc2)NC(=O)[C@H](CC(N)=O)NC(=O)[C@H](CCCCN)NC1=O | Active | > 1000 | > 1000 | 315 | > 1000 | > 1000 | 131 | Active | – | – | – |
| C[C@H](N)C(=O)NCC(=O)N[C@H]1CSSC[C@@H](C(=O)O)NC(=O)[C@H](CO)NC(=O)[C@H]([C@@H](C)O)NC(=O)[C@H](Cc2ccccc2)NC(=O)[C@H]([C@@H](C)O)NC(=O)[C@H](CCCCN)NC(=O)[C@@H](Cc2ccc3ccccc3c2)NC(=O)[C@H](Cc2ccccc2)NC(=O)[C@H](Cc2ccccc2)NC(=O)[C@H](CC(N)=O)NC(=O)[C@H](CCCCN)NC1=O | – | 12 | 2.4 | – | 1.6 | 4.1 | 1 | Active | 0.23 | – | – |

From ChEMBL document CHEMBL1821599 (J Med Chem, 2011)
